Results taken from ChEMBL document CHEMBL1201862, “PubChem BioAssay data set” (2004).
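48-hour exposure; five concentrations; linearly interpolated endpoints. GI50 = concentration required for 50% inhibition of growth.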 Calls of active or inactive are those of the source. No stated cut-off is given here; in the data, active = GI50 up to about 1.1 µM and inactive = higher.

What was measured:
Assay in all cases: NCI tumour cell line growth inhibition, 48 h
SN12C = test system: SN12C
UO-31 = test system: UO-31
SK-MEL-28 = test system: SK-MEL-28
NCI-H226 = test system: NCI-H226
RXF 393 = test system: RXF 393
K562 = test system: K562
MDA-N = test system: MDA-N
BT-549 = test system: BT-549
OVCAR-3 = test system: OVCAR-3
SK-MEL-5 = test system: SK-MEL-5
U-251 = test system: U-251
NCI-H522 = test system: NCI-H522
OVCAR-8 = test system: OVCAR-8
HCC 2998 = test system: HCC 2998
KM12 = test system: KM12
SK-OV-3 = test system: SK-OV-3
UACC-257 = test system: UACC-257
A549 = test system: A549
A498 = test system: A498
HL-60 = test system: HL-60

Row | Compound | GI50 (SN12C) | GI50 (UO-31) | GI50 (SK-MEL-28) | GI50 (NCI-H226) | GI50 (RXF 393) | GI50 (K562) | GI50 (MDA-N) | GI50 (BT-549) | GI50 (OVCAR-3) | GI50 (SK-MEL-5) | GI50 (U-251) | GI50 (NCI-H522) | GI50 (OVCAR-8) | GI50 (HCC 2998) | GI50 (KM12) | GI50 (SK-OV-3) | GI50 (UACC-257) | GI50 (A549) | GI50 (A498) | GI50 (HL-60)
1 | CC(NC(=O)C(CC(=O)OCc1ccccc1)NC(=O)OCc1ccccc1)c1ccccc1 (centres undefined) | > 100 µM (inactive) | > 100 µM (inactive) | 90.2 µM (inactive) | 43.5 µM (inactive) | 19.2 µM (inactive) | > 100 µM (inactive) | > 100 µM (inactive) | > 100 µM (inactive) | > 100 µM (inactive) | > 100 µM (inactive) | > 100 µM (inactive) | 37.4 µM (inactive) | > 100 µM (inactive) | > 100 µM (inactive) | > 100 µM (inactive) | 83.2 µM (inactive) | > 10 µM (inactive) | 73.5 µM (inactive) | – | –
2 | CCc1c[n+]([O-])c(C)cc1[N+](=O)[O-] | 53.7 µM (inactive) | > 100 µM (inactive) | > 100 µM (inactive) | – | 22.4 µM (inactive) | 48.6 µM (inactive) | 44.2 µM (inactive) | > 100 µM (inactive) | > 100 µM (inactive) | > 100 µM (inactive) | 99.5 µM (inactive) | 55.3 µM (inactive) | 46.2 µM (inactive) | 24.3 µM (inactive) | 45.4 µM (inactive) | > 100 µM (inactive) | > 100 µM (inactive) | 56.1 µM (inactive) | > 100 µM (inactive) | > 100 µM (inactive)
3 | C1=N\c2ccc(cc2)/N=C\c2ccc(cc2)OCc2cccc(n2)COc2ccc/1cc2 | > 100 µM (inactive) | > 100 µM (inactive) | > 100 µM (inactive) | > 100 µM (inactive) | > 100 µM (inactive) | > 100 µM (inactive) | > 100 µM (inactive) | > 100 µM (inactive) | > 100 µM (inactive) | > 100 µM (inactive) | > 100 µM (inactive) | > 100 µM (inactive) | > 100 µM (inactive) | – | > 100 µM (inactive) | > 100 µM (inactive) | > 100 µM (inactive) | > 100 µM (inactive) | > 100 µM (inactive) | > 100 µM (inactive)
4 | O=[As](O)(O)c1ccc(NCc2ccccc2)cc1 | > 100 µM (inactive) | > 100 µM (inactive) | > 100 µM (inactive) | > 100 µM (inactive) | > 100 µM (inactive) | > 100 µM (inactive) | > 100 µM (inactive) | > 100 µM (inactive) | > 100 µM (inactive) | > 100 µM (inactive) | > 100 µM (inactive) | 76.9 µM (inactive) | > 100 µM (inactive) | – | > 100 µM (inactive) | – | > 100 µM (inactive) | > 100 µM (inactive) | > 100 µM (inactive) | –
5 | Cc1c(CCCl)c(=O)n2c([nH]c3ccccc32)c1C#N | 1.36 µM (inactive) | 1.91 µM (inactive) | 1.87 µM (inactive) | 2.02 µM (inactive) | 1.76 µM (inactive) | 1.34 µM (inactive) | 1.61 µM (inactive) | 1.91 µM (inactive) | 1.73 µM (inactive) | 1.42 µM (inactive) | 1.79 µM (inactive) | – | 1.6 µM (inactive) | – | 1.75 µM (inactive) | 2.1 µM (inactive) | 2.73 µM (inactive) | 1.78 µM (inactive) | – | 1.55 µM (inactive)
6 | CCCCC/C=C1\CC(CO)(COC(=O)CC(C(C)C)C(C)C)OC1=O (centres undefined) | 16.1 µM (inactive) | 13.7 µM (inactive) | 16.1 µM (inactive) | 13.7 µM (inactive) | 17.9 µM (inactive) | 6.84 µM (inactive) | 8.15 µM (inactive) | 16.4 µM (inactive) | 17.5 µM (inactive) | 11 µM (inactive) | 14.5 µM (inactive) | 17.8 µM (inactive) | 18.2 µM (inactive) | 15.4 µM (inactive) | 11.4 µM (inactive) | 19.1 µM (inactive) | 21.1 µM (inactive) | 8.89 µM (inactive) | 15.8 µM (inactive) | –
7 | NC(CSC1c2ccccc2-c2ccccc21)C(=O)O (centres undefined) | > 100 µM (inactive) | > 100 µM (inactive) | > 100 µM (inactive) | > 100 µM (inactive) | > 100 µM (inactive) | > 100 µM (inactive) | > 100 µM (inactive) | > 100 µM (inactive) | > 100 µM (inactive) | > 100 µM (inactive) | > 100 µM (inactive) | – | > 100 µM (inactive) | – | > 100 µM (inactive) | > 100 µM (inactive) | > 100 µM (inactive) | > 100 µM (inactive) | > 100 µM (inactive) | > 100 µM (inactive)
8 | CN1CCN(C(=S)N(C(=O)c2cccs2)C2CCCCC2)CC1 | > 100 µM (inactive) | > 100 µM (inactive) | > 100 µM (inactive) | > 100 µM (inactive) | > 100 µM (inactive) | > 100 µM (inactive) | > 100 µM (inactive) | > 100 µM (inactive) | > 100 µM (inactive) | > 100 µM (inactive) | > 100 µM (inactive) | > 100 µM (inactive) | > 100 µM (inactive) | > 100 µM (inactive) | > 100 µM (inactive) | – | > 100 µM (inactive) | > 100 µM (inactive) | – | 24.8 µM (inactive)
9 | N#CC(C#N)=C1c2ccccc2C(=NN)c2ccccc21 | > 100 µM (inactive) | > 100 µM (inactive) | > 100 µM (inactive) | > 100 µM (inactive) | 27.5 µM (inactive) | > 100 µM (inactive) | > 100 µM (inactive) | > 100 µM (inactive) | > 100 µM (inactive) | 14.8 µM (inactive) | 37.3 µM (inactive) | 3.58 µM (inactive) | > 100 µM (inactive) | > 100 µM (inactive) | > 100 µM (inactive) | > 100 µM (inactive) | > 100 µM (inactive) | – | > 28.7 µM (inactive) | –
10 | CCCCCCCCCCCCCCCCS(=O)(=O)c1ccc(NN)cc1 | > 10 µM (inactive) | – | > 10 µM (inactive) | – | > 10 µM (inactive) | 2.71 µM (inactive) | > 10 µM (inactive) | > 10 µM (inactive) | 8.81 µM (inactive) | > 10 µM (inactive) | 6.19 µM (inactive) | 5.9 µM (inactive) | 6.53 µM (inactive) | > 10 µM (inactive) | > 10 µM (inactive) | > 10 µM (inactive) | > 10 µM (inactive) | 5.27 µM (inactive) | > 10 µM (inactive) | 1.5 µM (inactive)
11 | C[C@H](NC(=O)c1ccc(CNC(=O)/C=C/c2cccc(Oc3ccccc3)c2)cc1)c1ccccc1 | > 100 µM (inactive) | 46.1 µM (inactive) | 80.9 µM (inactive) | 32.7 µM (inactive) | 26.7 µM (inactive) | > 100 µM (inactive) | > 100 µM (inactive) | > 100 µM (inactive) | > 100 µM (inactive) | 58.5 µM (inactive) | 49.2 µM (inactive) | > 100 µM (inactive) | > 100 µM (inactive) | > 100 µM (inactive) | > 100 µM (inactive) | > 100 µM (inactive) | > 100 µM (inactive) | 55.8 µM (inactive) | 73.6 µM (inactive) | –
12 | CN(C)Cc1c[nH]c2ncnc(O)c12 | 34.2 µM (inactive) | 62.2 µM (inactive) | 46.1 µM (inactive) | > 100 µM (inactive) | 18.6 µM (inactive) | 20.7 µM (inactive) | 23.1 µM (inactive) | > 100 µM (inactive) | > 100 µM (inactive) | 53.7 µM (inactive) | 51.6 µM (inactive) | > 100 µM (inactive) | 29 µM (inactive) | – | > 100 µM (inactive) | > 100 µM (inactive) | 23 µM (inactive) | 86.5 µM (inactive) | > 100 µM (inactive) | 19.7 µM (inactive)
13 | Clc1ccc2c(NCCNC3CCCCC3)ccnc2c1 | 16.2 µM (inactive) | 2.95 µM (inactive) | 1.86 µM (inactive) | 10.6 µM (inactive) | 8.95 µM (inactive) | 2.12 µM (inactive) | 2.29 µM (inactive) | 10.5 µM (inactive) | 15 µM (inactive) | 1.62 µM (inactive) | 5.5 µM (inactive) | 2.67 µM (inactive) | 10.7 µM (inactive) | – | 6.28 µM (inactive) | 13.9 µM (inactive) | – | 13.6 µM (inactive) | 2.11 µM (inactive) | 2.42 µM (inactive)
14 | CN(C)/C=N/CCN1CCOCC1 | > 100 µM (inactive) | > 100 µM (inactive) | 57.3 µM (inactive) | > 100 µM (inactive) | > 100 µM (inactive) | > 100 µM (inactive) | > 100 µM (inactive) | > 100 µM (inactive) | > 100 µM (inactive) | > 100 µM (inactive) | > 100 µM (inactive) | > 100 µM (inactive) | > 100 µM (inactive) | – | – | > 100 µM (inactive) | > 100 µM (inactive) | > 100 µM (inactive) | > 100 µM (inactive) | > 100 µM (inactive)
15 | Nc1ccn([C@H]2CO[C@@H](CO)O2)c(=O)n1 | 1.95 µM (inactive) | 1.57 µM (inactive) | 15.7 µM (inactive) | 39.4 µM (inactive) | 1.83 µM (inactive) | 26.1 µM (inactive) | 17.4 µM (inactive) | 32.7 µM (inactive) | > 71.6 µM (inactive) | 18.9 µM (inactive) | 10.5 µM (inactive) | 7.03 µM (inactive) | 1.51 µM (inactive) | 33.7 µM (inactive) | > 100 µM (inactive) | 3.77 µM (inactive) | 97.7 µM (inactive) | 1.35 µM (inactive) | – | 0.252 µM (active)
